According to ChEMBL document CHEMBL4311992, “Discovery of 3-(((9H-purin-6-yl)amino)methyl)-4,6-dimethylpyridin-2(1H)-one derivatives as novel tubulin polymerization inhibitors for treatment of cancer” (Eur J Med Chem, 2019):
Activity calls are given as the source filed them. No cut-off for these calls is given here.

Experiments:
[1] = molecular target: Casein kinase I isoform gamma-1 (Homo sapiens) (UniProt Q9HCP0); assay: Inhibition of recombinant human CK1gamma1 (25 to 355 residues) assessed as residual activity at 10 uM using KRRRALS(p)VASLPGL as substrate measured after 40 mins in presence of [gamma33P]ATP by scintillation counting method
[2] = test system: Mast/stem cell growth factor receptor Kit (Homo sapiens), P10721 [V654A]; assay: Inhibition of recombinant human c-Kit V654A mutant (544 to end residues) assessed as residual activity at 10 uM using GGMEDIYFEFMGGKKK as substrate measured after 40 mins in presence of [gamma33P]ATP by scintillation counting method
[3] = test system: Angiopoietin-1 receptor (Homo sapiens), Q02763 [Q939H,Q940H,Y897S]; assay: Inhibition of human Tie2 Q939H/Q940H/Y897S mutant (771 to end residues) using EFPIYDFLPAKKK as substrate measured after 40 mins in presence of [gamma33P]ATP by scintillation counting method; design: scale not given: the % may be the effect or the level left
[4] = molecular target: Serine/threonine-protein kinase/endoribonuclease IRE1 (Homo sapiens) (UniProt O75460); assay: Inhibition of recombinant human IRE1 (465 to end residues) assessed as residual activity at 10 uM using myelin basic protein as substrate measured after 40 mins in presence of [gamma33P]ATP by scintillation counting method
[5] = test system: Phosphorylase b kinase gamma catalytic chain, liver/testis isoform (Homo sapiens), P15735 [F290L]; assay: Inhibition of recombinant human PhKgamma2 F290L mutant (1 to 301 residues) assessed as residual activity at 10 uM using KKLNRTLSFAEPG as substrate measured after 40 mins in presence of [gamma33P]ATP by scintillation counting method
[6] = molecular target: Focal adhesion kinase 1 (Homo sapiens) (UniProt Q05397); assay: Inhibition of recombinant human FAK (411 to 686 residues) assessed as residual activity at 10 uM using EEEEYEEEEEEYYIIEEEEEEYEEEEEEYYEEEEEEKKKK as substrate measured after 40 mins in presence of [gamma33P]ATP by scintillation counting method
[7] = molecular target: Phosphatidylinositol 5-phosphate 4-kinase type-2 alpha (Homo sapiens) (UniProt P48426); assay: Inhibition of recombinant full-length human PIP4K2alpha assessed as residual activity at 10 uM using phosphatidylinositol 5-phosphate as substrate measured after 40 mins by HTRF assay
[8] = molecular target: Calcium/calmodulin-dependent protein kinase kinase 1 (Homo sapiens) (UniProt Q8N5S9); assay: Inhibition of recombinant full-length human CAMKk1 assessed as residual activity at 10 uM using calmodulin as substrate measured after 40 mins in presence of [gamma33P]ATP by scintillation counting method
[9] = test system: Proto-oncogene tyrosine-protein kinase receptor Ret (Homo sapiens), P07949 [V804M]; assay: Inhibition of human Ret V804M mutant (658 to end residues) using […] as substrate measured after 40 mins in presence of [gamma33P]ATP by scintillation counting method; design: scale not given: the % may be the effect or the level left
HCT-116 [10] = assay: Cell cycle arrest in human HCT116 cells assessed as up regulation of CDK1 expression up to 150 nM after 24 hrs by Western blot analysis; type: functional, cell-based
[11] = test system: Hepatocyte growth factor receptor (Homo sapiens), P08581 [Y1230D]; assay: Inhibition of recombinant human MET A1209G/V1290L/Y1248D mutant (974 to end residues) assessed as residual activity at 10 uM using KKKGQEEEYVFIE as substrate measured after 40 mins in presence of [gamma33P]ATP by scintillation counting method
SW-620 [12] = assay: Induction of apoptosis in human SW620 cells assessed as increase in cleaved caspase3 expression up to 200 nM measured after 48 hrs by Western blot analysis; type: functional, cell-based
[13] = Toxicity in nude BALB/c mouse assessed as change in ALT level at 40 to 80 mg/kg, po once daily for 4 weeks measured post-last dose; type: organism-based; conditions: in vivo, 672 h
[14] = molecular target: cGMP-dependent protein kinase 1 (Homo sapiens) (UniProt Q13976); assay: Inhibition of recombinant full-length human PKG1beta assessed as residual activity at 10 uM using RRRLSFAEPG as substrate measured after 40 mins in presence of [gamma33P]ATP by scintillation counting method
HCT-116 [15] = assay: Induction of cell cycle arrest in human HCT116 cells assessed as accumulation at G2/M phase after 24 hrs by propidium iodide-staining based flow cytometry; type: functional
SW-620 [16] = assay: Induction of apoptosis in human SW620 cells assessed as increase in cleaved caspase9 expression measured after 48 hrs by Western blot analysis; type: functional, cell-based
[17] = molecular target: Tyrosine-protein kinase Fes/Fps (Homo sapiens) (UniProt P07332); assay: Inhibition of recombinant human FES (2 to end residues) assessed as residual activity at 10 uM using poly(Glu, Tyr) 4:1 as substrate measured after 40 mins in presence of [gamma33P]ATP by scintillation counting method
[18] = test system: Angiopoietin-1 receptor (Homo sapiens), Q02763 [Q939H,Q940H,R849W]; assay: Inhibition of human Tie2 Q939H/Q940H/R849W mutant (771 to end residues) using EFPIYDFLPAKKK as substrate measured after 40 mins in presence of [gamma33P]ATP by scintillation counting method; design: scale not given: the % may be the effect or the level left
[19] = molecular target: Fibroblast growth factor receptor 3 (Homo sapiens) (UniProt P22607); assay: Inhibition of recombinant human FGFR3 (447 to 761 residues) assessed as residual activity at 10 uM using poly(Glu, Tyr) 4:1 as substrate measured after 40 mins in presence of [gamma33P]ATP by scintillation counting method
HCT-116 [20] = assay: Induction of apoptosis in human HCT116 cells assessed as viable cells at 100 nM measured after 48 hrs by Annexin V-FITC/propidium iodide staining-based flow cytometry (reference value: 94.5%); type: functional; conditions: HCT-116, 48 h, read-out: Activity
[21] = test system: TGF-beta receptor type-1 (Homo sapiens), P36897 [T204D]; assay: Inhibition of human TGFBR1 T204D mutant (200 to end residues) using casein as substrate measured after 40 mins in presence of [gamma33P]ATP by scintillation counting method; design: scale not given: the % may be the effect or the level left
[22] = molecular target: Ephrin type-A receptor 4 (Homo sapiens) (UniProt P54764); assay: Inhibition of recombinant human EphA4 (601 to 892 residues) assessed as residual activity at 10 uM using poly(Glu, Tyr) 4:1 as substrate measured after 40 mins in presence of [gamma33P]ATP by scintillation counting method
[23] = molecular target: Insulin receptor (Homo sapiens) (UniProt P06213); assay: Inhibition of recombinant human activated IR (1005 to 1310 residues) assessed as residual activity at 10 uM using KKKSPGEYVNIEFG as substrate measured after 40 mins in presence of [gamma33P]ATP by scintillation counting method
SW-620 [24] = assay: Induction of apoptosis in human SW620 cells assessed as late apoptotic cells at 50 nM measured after 48 hrs by Annexin V-FITC/propidium iodide staining-based flow cytometry (reference value: 1.8%); type: functional

Calcium/calmodulin-dependent protein kinase kinase 1 (Homo sapiens), sequence (Q8N5S9 whole entry, looked up): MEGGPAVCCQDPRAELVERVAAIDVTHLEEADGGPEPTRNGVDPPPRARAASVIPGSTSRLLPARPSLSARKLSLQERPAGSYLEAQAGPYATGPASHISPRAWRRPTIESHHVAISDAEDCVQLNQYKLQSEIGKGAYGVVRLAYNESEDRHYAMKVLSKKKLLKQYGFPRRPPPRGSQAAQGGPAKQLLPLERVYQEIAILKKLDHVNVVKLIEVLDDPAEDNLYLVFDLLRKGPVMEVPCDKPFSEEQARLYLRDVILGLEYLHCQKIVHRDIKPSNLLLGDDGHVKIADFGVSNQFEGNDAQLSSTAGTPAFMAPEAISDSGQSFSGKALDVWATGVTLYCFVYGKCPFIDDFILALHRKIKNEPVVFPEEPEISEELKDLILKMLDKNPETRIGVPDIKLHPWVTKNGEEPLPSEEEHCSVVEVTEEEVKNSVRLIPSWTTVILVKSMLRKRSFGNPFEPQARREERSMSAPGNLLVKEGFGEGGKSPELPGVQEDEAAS
Mast/stem cell growth factor receptor Kit (Homo sapiens), P10721 [V654A], sequence (P10721 whole entry V654A): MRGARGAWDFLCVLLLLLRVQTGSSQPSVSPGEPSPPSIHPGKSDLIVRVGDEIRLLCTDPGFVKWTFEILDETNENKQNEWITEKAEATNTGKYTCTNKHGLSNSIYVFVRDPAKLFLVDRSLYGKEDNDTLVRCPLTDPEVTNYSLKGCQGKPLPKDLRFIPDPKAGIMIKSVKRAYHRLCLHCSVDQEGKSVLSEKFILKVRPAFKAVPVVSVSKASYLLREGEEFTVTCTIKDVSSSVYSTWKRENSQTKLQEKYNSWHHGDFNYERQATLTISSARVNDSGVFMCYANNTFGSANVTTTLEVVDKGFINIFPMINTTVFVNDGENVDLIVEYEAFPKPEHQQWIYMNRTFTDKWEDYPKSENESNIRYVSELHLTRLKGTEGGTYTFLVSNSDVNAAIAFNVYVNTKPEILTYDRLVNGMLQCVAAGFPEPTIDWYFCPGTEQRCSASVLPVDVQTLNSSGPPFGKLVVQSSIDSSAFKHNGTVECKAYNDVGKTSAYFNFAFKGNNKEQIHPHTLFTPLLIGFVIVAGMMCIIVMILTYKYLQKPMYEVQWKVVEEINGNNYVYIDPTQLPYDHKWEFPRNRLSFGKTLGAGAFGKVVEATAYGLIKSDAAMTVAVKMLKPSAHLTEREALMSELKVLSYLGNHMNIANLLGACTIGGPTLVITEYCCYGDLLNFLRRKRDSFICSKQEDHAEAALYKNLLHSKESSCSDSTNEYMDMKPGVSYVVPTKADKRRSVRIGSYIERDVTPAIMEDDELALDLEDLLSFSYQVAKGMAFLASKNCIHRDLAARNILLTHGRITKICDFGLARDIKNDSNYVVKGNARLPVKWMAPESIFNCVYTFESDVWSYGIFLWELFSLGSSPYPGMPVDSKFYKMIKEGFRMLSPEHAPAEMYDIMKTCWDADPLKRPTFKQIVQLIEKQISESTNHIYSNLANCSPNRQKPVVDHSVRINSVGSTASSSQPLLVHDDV
Phosphatidylinositol 5-phosphate 4-kinase type-2 alpha (Homo sapiens), sequence (P48426 whole entry): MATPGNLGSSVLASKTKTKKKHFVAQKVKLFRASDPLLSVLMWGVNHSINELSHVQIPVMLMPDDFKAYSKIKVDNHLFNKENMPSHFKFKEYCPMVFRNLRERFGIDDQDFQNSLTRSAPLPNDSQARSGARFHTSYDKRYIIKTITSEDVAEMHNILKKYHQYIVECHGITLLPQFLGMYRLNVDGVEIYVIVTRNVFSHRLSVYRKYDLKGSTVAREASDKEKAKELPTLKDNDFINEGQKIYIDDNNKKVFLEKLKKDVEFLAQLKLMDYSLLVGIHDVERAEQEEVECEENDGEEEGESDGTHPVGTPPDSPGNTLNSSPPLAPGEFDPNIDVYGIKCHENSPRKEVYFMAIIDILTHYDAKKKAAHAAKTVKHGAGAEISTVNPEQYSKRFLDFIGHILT
Tyrosine-protein kinase Fes/Fps (Homo sapiens), sequence (P07332 whole entry): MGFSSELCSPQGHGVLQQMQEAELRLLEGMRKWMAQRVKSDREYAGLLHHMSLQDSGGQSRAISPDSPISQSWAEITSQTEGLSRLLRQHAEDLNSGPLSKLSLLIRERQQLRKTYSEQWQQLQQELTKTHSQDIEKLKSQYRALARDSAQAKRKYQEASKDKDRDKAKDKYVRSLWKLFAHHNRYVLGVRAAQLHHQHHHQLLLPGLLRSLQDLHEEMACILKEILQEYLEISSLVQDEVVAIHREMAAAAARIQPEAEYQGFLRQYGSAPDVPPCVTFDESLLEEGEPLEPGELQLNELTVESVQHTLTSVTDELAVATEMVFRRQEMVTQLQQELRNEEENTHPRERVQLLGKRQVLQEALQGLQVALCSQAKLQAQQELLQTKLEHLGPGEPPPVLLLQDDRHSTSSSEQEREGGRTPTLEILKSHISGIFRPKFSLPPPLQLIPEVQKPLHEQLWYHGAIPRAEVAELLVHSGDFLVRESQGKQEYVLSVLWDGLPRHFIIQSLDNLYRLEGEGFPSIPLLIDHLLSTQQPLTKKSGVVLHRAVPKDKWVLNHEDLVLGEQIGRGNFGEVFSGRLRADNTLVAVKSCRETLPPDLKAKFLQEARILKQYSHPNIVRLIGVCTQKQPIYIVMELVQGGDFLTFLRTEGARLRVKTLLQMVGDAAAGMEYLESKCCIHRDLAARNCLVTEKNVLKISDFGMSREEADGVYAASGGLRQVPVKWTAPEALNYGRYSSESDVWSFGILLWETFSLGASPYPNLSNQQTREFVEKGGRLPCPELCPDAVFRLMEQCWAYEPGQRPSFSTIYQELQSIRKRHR
Serine/threonine-protein kinase/endoribonuclease IRE1 (Homo sapiens), sequence (O75460 19-977 limits assumed): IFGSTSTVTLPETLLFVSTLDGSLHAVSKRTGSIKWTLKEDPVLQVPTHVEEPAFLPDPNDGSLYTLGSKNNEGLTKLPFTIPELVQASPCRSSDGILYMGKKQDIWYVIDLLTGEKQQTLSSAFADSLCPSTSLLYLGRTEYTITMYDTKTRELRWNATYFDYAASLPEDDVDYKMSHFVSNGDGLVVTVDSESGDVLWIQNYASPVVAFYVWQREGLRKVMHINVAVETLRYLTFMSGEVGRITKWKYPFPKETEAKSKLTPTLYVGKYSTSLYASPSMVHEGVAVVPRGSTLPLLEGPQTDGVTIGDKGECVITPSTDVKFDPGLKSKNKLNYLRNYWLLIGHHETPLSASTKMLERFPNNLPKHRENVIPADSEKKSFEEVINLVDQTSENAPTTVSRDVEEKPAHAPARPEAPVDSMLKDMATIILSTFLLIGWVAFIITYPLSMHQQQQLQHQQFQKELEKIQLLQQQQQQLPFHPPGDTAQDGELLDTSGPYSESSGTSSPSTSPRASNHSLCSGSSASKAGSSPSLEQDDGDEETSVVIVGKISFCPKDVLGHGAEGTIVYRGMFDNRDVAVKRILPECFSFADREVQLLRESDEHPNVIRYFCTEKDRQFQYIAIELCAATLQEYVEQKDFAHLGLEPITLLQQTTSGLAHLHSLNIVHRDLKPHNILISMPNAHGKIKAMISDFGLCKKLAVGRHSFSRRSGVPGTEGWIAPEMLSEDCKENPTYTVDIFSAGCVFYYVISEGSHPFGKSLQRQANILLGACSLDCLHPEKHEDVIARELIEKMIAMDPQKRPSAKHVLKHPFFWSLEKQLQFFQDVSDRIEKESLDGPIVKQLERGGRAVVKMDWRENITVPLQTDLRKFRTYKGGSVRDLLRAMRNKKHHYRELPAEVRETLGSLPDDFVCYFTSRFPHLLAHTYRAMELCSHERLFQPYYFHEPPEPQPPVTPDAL
Proto-oncogene tyrosine-protein kinase receptor Ret (Homo sapiens), P07949 [V804M], sequence (P07949 whole entry V804M): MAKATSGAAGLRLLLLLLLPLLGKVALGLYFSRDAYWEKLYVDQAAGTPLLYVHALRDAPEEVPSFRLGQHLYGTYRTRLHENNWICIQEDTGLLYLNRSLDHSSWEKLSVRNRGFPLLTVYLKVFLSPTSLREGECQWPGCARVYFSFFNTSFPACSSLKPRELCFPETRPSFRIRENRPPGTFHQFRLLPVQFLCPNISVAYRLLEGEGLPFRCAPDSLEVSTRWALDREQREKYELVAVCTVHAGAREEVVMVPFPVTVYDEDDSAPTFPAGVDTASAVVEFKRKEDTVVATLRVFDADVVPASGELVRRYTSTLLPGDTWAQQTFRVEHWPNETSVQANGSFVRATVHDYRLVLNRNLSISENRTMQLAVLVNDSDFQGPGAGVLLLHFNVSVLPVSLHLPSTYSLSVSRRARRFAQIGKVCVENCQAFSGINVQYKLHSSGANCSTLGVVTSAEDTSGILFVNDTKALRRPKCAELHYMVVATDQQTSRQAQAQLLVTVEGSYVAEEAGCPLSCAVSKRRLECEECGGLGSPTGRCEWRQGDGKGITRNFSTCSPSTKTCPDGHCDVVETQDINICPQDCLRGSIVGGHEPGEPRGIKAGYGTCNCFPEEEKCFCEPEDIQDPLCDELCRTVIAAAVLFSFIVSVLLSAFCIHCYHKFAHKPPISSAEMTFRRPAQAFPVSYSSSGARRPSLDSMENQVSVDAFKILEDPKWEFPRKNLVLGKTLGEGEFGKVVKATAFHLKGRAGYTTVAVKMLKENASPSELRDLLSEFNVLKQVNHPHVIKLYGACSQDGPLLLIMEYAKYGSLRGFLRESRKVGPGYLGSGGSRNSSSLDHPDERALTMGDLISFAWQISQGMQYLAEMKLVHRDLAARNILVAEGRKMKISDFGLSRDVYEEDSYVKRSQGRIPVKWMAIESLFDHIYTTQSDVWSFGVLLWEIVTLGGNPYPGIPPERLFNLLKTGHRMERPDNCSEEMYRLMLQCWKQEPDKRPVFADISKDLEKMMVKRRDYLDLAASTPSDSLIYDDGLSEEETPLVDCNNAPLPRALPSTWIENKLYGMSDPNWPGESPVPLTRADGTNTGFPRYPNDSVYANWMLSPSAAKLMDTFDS

In the case of `Cc1cc(C)c(CNc2nc(Cl)nc3c2ncn3C2CCCC2)c(=O)[nH]1`, the Activity [1] is reported as 94.5%, the Activity [2] is reported as 90% and the Activity [3] is reported as 114%. It also gave an Activity [4] of 101%, an Activity [5] of 92% and an Activity [6] of 104%. The Activity [7] was 108%, the Activity [8] was 102% and the Activity [9] was 106%. The Activity (HCT-116 [10]) was “Active”, the Activity [11] was 102% and the Activity (SW-620 [12]) was “Active”. For the same compound, the Activity [13] was “Non-Toxic”, the Activity [14] was 112% and the Activity (HCT-116 [15]) was “Dose-dependent effect”. For the same compound, the Activity (SW-620 [16]) was “Dose-dependent effect”, the Activity [17] was 100% and the Activity [18] was 102%. For the same compound, the Activity [19] was 94.5%, the viability at 0.1 µM (HCT-116 [20]) was 39% and the Activity [21] was 98%. The Activity [22] was 100%, the Activity [23] was 101% and the Activity (SW-620 [24]) was 9.24%.
